Experimental data: US5017489A (priority 1988, dated 1991)
Entries after “also recorded” stand apart in the source; their conditions may differ. Where two headings read alike, the source gives them in different places. Values belong to the compound of their own block, whether it stands above or below them.

Columns and labels:
[1] = target: T1, CTL serine esterase (BLT-serine esterase) in extract of murine CTL clone G4 (Mus musculus, UniProt P11032); assay: biochemical; settings: read-out: Percent Inhibition of esterase activity
T1 sequence (P11032 29-260): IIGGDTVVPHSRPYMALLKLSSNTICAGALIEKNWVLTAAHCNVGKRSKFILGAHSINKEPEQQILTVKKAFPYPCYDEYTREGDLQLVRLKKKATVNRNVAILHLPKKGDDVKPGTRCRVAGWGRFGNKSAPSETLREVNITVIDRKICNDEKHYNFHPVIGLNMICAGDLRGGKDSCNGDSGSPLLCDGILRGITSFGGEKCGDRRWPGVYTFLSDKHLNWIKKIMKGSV

[2] = target: T1, CTL serine esterase (BLT-serine esterase) in extract of murine CTL clone G4
[3] = test system: lysis of P815 (H-2d) cells by cloned anti-Dd G4 cells
G4 cells = assay: Toxicity of inhibitor for G4 cells (51Cr release, trypan blue recovery); assay type: cell-based, murine; settings: PMSF at the concentrations shown (0.375-3 mM), 3% DMSO
[4] = test system: human CTLs and target cells; assay: Viability of human CTLs (trypan blue exclusion) and targets (51Cr release) after PMSF; settings: 15 min in 6 mM PMSF
[5] = test system: cytolytic activity of human CTLs; assay: PMSF inhibition of cytolysis by human CTLs (2-h 51Cr-release assay); assay type: cell-based; settings: 15 min in 6 mM PMSF
Experimental: ^51 Cr-release killing assays were performed as described; when measuring lectin-dependent cytolytic activity, Con A (Vector Laboratories,Inc., Burlingame, CA) was added to a final concentration of 10 μg/ml.
Various numbers of T cells were incubated for 15 min at 37° C. in K medium containing PMSF at 0, 2, 4, and 6 mM (PMSF was added in DMSO; the final concentration of DMSO in all instances was 1%). Cytotoxicity was assayed as above except that a 2 hour assay was used to minimize the effect of new protein synthesis.

Compound: Cc1ccc(S(=O)(=O)N[C@@H](CCCCN)C(=O)CCl)cc1 [TLCK, N-α-tosyl lysyl chloromethyl ketone]
inhibition at 500 µM [1]: 4.6%
inhibition of murine CTL serine esterase activity (in words) [2]: not and not, however, inhibited
inhibition of serine esterase (in words) [2]: not inhibited

Compound: aprotinin
inhibition of CTL-mediated lysis (in words) [3]: does not inhibit
inhibition of cytotoxicity (in words) [3]: appears to inhibit cytotoxicity
inhibition in vitro of purified BLT serine esterase (in words) [2]: potent inhibitor
inhibition of serine esterase (in words) [2]: essentially totally inhibited

Compound: O=S(=O)(F)Cc1ccccc1 [PMSF, phenylmethylsulfonyl fluoride]
added toxicity for G4 cells (51Cr release or reduced recovery of viable cells) (G4 cells): no added toxicity
inhibition of lysis of P815 cells by G4 cells (in words) ([3]; nontoxic concentrations, G4 preincubated 30 minutes at 37° C.): clearly inhibits lysis
viability of CTLs (trypan blue exclusion) and targets (release of 51Cr) [4]: not affecting the viability
reduction of cytotoxicity [5]: approximately 75%
Percent Inhibition of esterase activity [2]: 97.2
inhibition of murine CTL serine esterase activity (in words) [2]: blocked completely; also recorded: inhibited; also recorded: completely inhibitable

inhibition of murine CTL serine esterase activity (in words) ([2]; murine enzyme): not
Compound: Cc1ccc(S(=O)(=O)N[C@@H](Cc2ccccc2)C(=O)CCl)cc1 [TPCK, N-tosyl-L-phenylalanine chloromethyl ketone]

Compound: α2 macroglobulin
inhibition of serine esterase (in words) [2]: not inhibited
